ChEMBL document CHEMBL1671707, “Mycobacterium tuberculosis dihydrofolate reductase is not a target relevant to the antitubercular activity of isoniazid” (Antimicrob Agents Chemother, 2010)
Values after ≈ are worked out from the molar mass of the structure shown. Active and inactive are the calls of the source. The calls are words filed in the database; no cut-off is given here.

How the values were obtained:
[1] = tested on: Mycolicibacterium smegmatis; assay: Antimicrobial activity against Mycobacterium smegmatis MC2 4517 harboring pYUB1062 plasmid overexpressing Mycobacterium tuberculosis Rv3777 probable oxidoreductase gene by broth microdilution method; type: functional
[2] = tested on: Mycolicibacterium smegmatis; assay: Antimicrobial activity against Mycobacterium smegmatis MC2 4517 harboring pYUB1062 plasmid overexpressing Mycobacterium tuberculosis Rv0091 Mtn/Sah gene by broth microdilution method; type: functional, organism-based
[3] = tested on: Mycolicibacterium smegmatis; assay: Antimicrobial activity against Mycobacterium smegmatis MC2 5097 harboring pYUB1062 plasmid overexpressing Mycobacterium tuberculosis Rv2763c DfrA gene by broth microdilution method; type: functional
[4] = tested on: Mycolicibacterium smegmatis; assay: Antimicrobial activity against Mycobacterium smegmatis MC2 4517 harboring pYUB1062 plasmid overexpressing Mycobacterium tuberculosis Rv2971 probable oxidoreductase gene by broth microdilution method; type: functional, organism-based
[5] = tested on: Mycolicibacterium smegmatis; assay: Antimicrobial activity against Mycobacterium smegmatis MC2 4517 harboring pYUB1062 plasmid overexpressing Mycobacterium tuberculosis Rv0468 FadB2 gene by broth microdilution method; type: functional
[6] = tested on: Mycolicibacterium smegmatis; assay: Antimicrobial activity against Mycobacterium smegmatis MC2 4517 harboring pYUB1062 plasmid overexpressing Mycobacterium tuberculosis Rv2671 RibD gene by broth microdilution method; type: functional
[7] = tested on: Mycolicibacterium smegmatis; assay: Antimicrobial activity against Mycobacterium smegmatis MC2 4517 harboring pYUB1062 plasmid overexpressing Mycobacterium tuberculosis Rv1996 universal stress protein gene by broth microdilution method; type: functional
[8] = tested on: Mycolicibacterium smegmatis; assay: Antimicrobial activity against Mycobacterium smegmatis MC2 4517 harboring pYUB1062 plasmid overexpressing Mycobacterium tuberculosis Rv2858c Aldc gene by broth microdilution method; type: functional
[9] = tested on: Mycolicibacterium smegmatis; assay: Antimicrobial activity against Mycobacterium smegmatis MC2 4517 harboring pYUB1062 plasmid overexpressing Mycobacterium tuberculosis Rv1059 unknown gene by broth microdilution method; type: functional
[10] = tested on: Mycolicibacterium smegmatis; assay: Antimicrobial activity against Mycobacterium smegmatis MC2 4517 harboring pYUB1062 plasmid overexpressing Mycobacterium tuberculosis Rv2691 CeoB/TrKA gene by broth microdilution method; type: functional
[11] = tested on: Mycolicibacterium smegmatis; assay: Antimicrobial activity against Mycobacterium smegmatis MC2 4517 harboring pYUB1062 plasmid overexpressing Mycobacterium tuberculosis Rv2623 universal stress protein gene by broth microdilution method; type: functional
[12] = tested on: Mycolicibacterium smegmatis; assay: Antimicrobial activity against Mycobacterium smegmatis MC2 4517 harboring pYUB1062 plasmid overexpressing Mycobacterium tuberculosis Rv0926c unknown gene by broth microdilution method; type: functional
[13] = tested on: Mycolicibacterium smegmatis; assay: Antimicrobial activity against Mycobacterium smegmatis MC2 4517 harboring pYUB1062 plasmid overexpressing Mycobacterium tuberculosis Rv2766 FabG5 gene by broth microdilution method; type: functional
[14] = tested on: Mycolicibacterium smegmatis; assay: Antimicrobial activity against Mycobacterium smegmatis MC2 4517 harboring pYUB1062 plasmid overexpressing Mycobacterium tuberculosis Rv3248c SahH gene by broth microdilution method; type: functional
[15] = tested on: Mycolicibacterium smegmatis; assay: Antimicrobial activity against Mycobacterium smegmatis MC2 4517 harboring pYUB1062 plasmid overexpressing Mycobacterium tuberculosis Rv1187 RocA gene by broth microdilution method; type: functional
[16] = tested on: Mycolicibacterium smegmatis; assay: Antimicrobial activity against Mycobacterium smegmatis MC2 5089 harboring pYUB1062 plasmid overexpressing Mycobacterium tuberculosis Rv1484 InhA gene by broth microdilution method; type: functional
[17] = tested on: Mycolicibacterium smegmatis; assay: Antimicrobial activity against Mycobacterium smegmatis MC2 4517 harboring pYUB1062 plasmid overexpressing Mycobacterium tuberculosis Rv0753c MmsA gene by broth microdilution method; type: functional
[18] = tested on: Mycolicibacterium smegmatis; assay: Antimicrobial activity against Mycobacterium smegmatis MC2 4517 harboring pYUB1062 plasmid overexpressing Mycobacterium tuberculosis Rv0155 PntAA gene by broth microdilution method; type: functional
[19] = tested on: Mycobacterium tuberculosis; assay: Ratio of MIC for Mycobacterium tuberculosis H37RV harboring pMV261::InhA plasmid to MIC for wild-type Mycobacterium tuberculosis H37Rv; type: functional
[20] = tested on: Mycobacterium tuberculosis; assay: Antimicrobial activity against Mycobacterium tuberculosis H37Rv harboring pMV261::dfrA plasmid by MTT assay; type: functional, organism-based
[21] = tested on: Mycobacterium tuberculosis; assay: Antimicrobial activity against Mycobacterium tuberculosis H37Rv harboring pMV261::InhA plasmid by MTT assay; type: functional, organism-based

**Q.** For CCc1cc(C(N)=S)ccn1 [ETHIONAMIDE], which MIC [1] is on record?
**A.** 9.4 µg/mL (≈ 56.5 µM)

**Q.** What about the MIC [2] of the same compound?
**A.** inactive

**Q.** What about the MIC [3] of the same compound?
**A.** 9.4 µg/mL (≈ 56.5 µM)

**Q.** And the MIC [4]?
**A.** inactive

**Q.** What about the MIC [5] of the same compound?
**A.** 9.4 µg/mL (≈ 56.5 µM)

**Q.** And the MIC [6]?
**A.** 9.4 µg/mL (≈ 56.5 µM)

**Q.** And the MIC [7]?
**A.** 9.4 µg/mL (≈ 56.5 µM)

**Q.** What about the MIC [8] of the same compound?
**A.** 9.4 µg/mL (≈ 56.5 µM)

**Q.** And the MIC [9]?
**A.** 9.4 µg/mL (≈ 56.5 µM)

**Q.** What about the MIC [10] of the same compound?
**A.** 9.4 µg/mL (≈ 56.5 µM)

**Q.** What about the MIC [11] of the same compound?
**A.** 9.4 µg/mL (≈ 56.5 µM)

**Q.** What about the MIC [12] of the same compound?
**A.** 9.4 µg/mL (≈ 56.5 µM)

**Q.** And the MIC [13]?
**A.** 9.4 µg/mL (≈ 56.5 µM)

**Q.** What about the MIC [14] of the same compound?
**A.** 9.4 µg/mL (≈ 56.5 µM)

**Q.** What about the MIC [15] of the same compound?
**A.** 9.4 µg/mL (≈ 56.5 µM)

**Q.** And the MIC [16]?
**A.** 150 µg/mL (≈ 902 µM)

**Q.** And the MIC [17]?
**A.** 9.4 µg/mL (≈ 56.5 µM)

**Q.** What about the MIC [18] of the same compound?
**A.** 9.4 µg/mL (≈ 56.5 µM)

**Q.** NNC(=O)c1ccncc1 [ISONIAZID] was tested. Which MIC [1] did it give?
**A.** 4.7 µg/mL (≈ 34.3 µM)

**Q.** What about the Ratio [19] of the same compound?
**A.** 20

**Q.** And the MIC [2]?
**A.** inactive

**Q.** And the MIC [3]?
**A.** 4.7 µg/mL (≈ 34.3 µM)

**Q.** And the Activity [20]?
**A.** Active

**Q.** What about the MIC [4] of the same compound?
**A.** inactive

**Q.** What about the MIC [5] of the same compound?
**A.** 4.7 µg/mL (≈ 34.3 µM)

**Q.** What about the MIC [6] of the same compound?
**A.** 4.7 µg/mL (≈ 34.3 µM)

**Q.** What about the MIC [7] of the same compound?
**A.** 4.7 µg/mL (≈ 34.3 µM)

**Q.** What about the MIC [8] of the same compound?
**A.** 4.7 µg/mL (≈ 34.3 µM)

**Q.** And the MIC [9]?
**A.** 4.7 µg/mL (≈ 34.3 µM)

**Q.** What about the MIC [10] of the same compound?
**A.** 4.7 µg/mL (≈ 34.3 µM)

**Q.** What about the MIC [11] of the same compound?
**A.** 4.7 µg/mL (≈ 34.3 µM)

**Q.** What about the MIC [12] of the same compound?
**A.** 4.7 µg/mL (≈ 34.3 µM)

**Q.** What about the Activity [21] of the same compound?
**A.** inactive

**Q.** What about the MIC [13] of the same compound?
**A.** 4.7 µg/mL (≈ 34.3 µM)

**Q.** And the MIC [14]?
**A.** 4.7 µg/mL (≈ 34.3 µM)

**Q.** What about the MIC [15] of the same compound?
**A.** 4.7 µg/mL (≈ 34.3 µM)

**Q.** What about the MIC [16] of the same compound?
**A.** 300 µg/mL (≈ 2190 µM)

**Q.** What about the MIC [17] of the same compound?
**A.** 4.7 µg/mL (≈ 34.3 µM)

**Q.** What about the MIC [18] of the same compound?
**A.** 4.7 µg/mL (≈ 34.3 µM)
